In the NIST ThermoML archive (doi:10.1021/je060271a):
Where “and” joins values, the source holds several entries; their conditions need not be identical. Equal values may be shown once. Numbers after ± are expanded uncertainties.

Settings: Liquid, Vibrating tube method

Structure (SMILES): CCCCCC(=O)OCC(COC(=O)CCCCC)(COC(=O)CCCCC)COC(=O)CCCCC [pentaerythritol tetrahexanoate]
- mass density (303.15 K, 32445 kPa): 1007.6 ± 1.2 kg/m3
- mass density (303.15 K, 32464 kPa): 1007.7 ± 1.2 kg/m3
- mass density (303.15 K, 32483 kPa): 1007.6 ± 1.2 kg/m3
- mass density (303.15 K, 32506 kPa): 1007.5 ± 1.2 kg/m3
- mass density (303.15 K, 32525 kPa): 1007.6 ± 1.2 kg/m3
- mass density (303.15 K, 32544 kPa): 1007.5 ± 1.2 kg/m3
- mass density (303.15 K, 32567 kPa): 1007.6 ± 1.2 kg/m3
- mass density (303.15 K, 32586 kPa): 1007.6 ± 1.2 kg/m3
- mass density (303.15 K, 32605 kPa): 1007.7 ± 1.2 kg/m3
- mass density (303.15 K, 32624 kPa): 1007.6 ± 1.2 kg/m3
- mass density (303.15 K, 32647 kPa): 1007.7 ± 1.2 kg/m3
- mass density (303.15 K, 32808 kPa): 1007.7 ± 1.2 kg/m3
- mass density (303.15 K, 32832 kPa): 1007.7 ± 1.2 kg/m3
- mass density (303.15 K, 32851 kPa): 1007.8 ± 1.2 kg/m3
- mass density (303.15 K, 32871 kPa): 1007.7 ± 1.2 kg/m3
- mass density (303.15 K, 32895 kPa): 1007.8 ± 1.2 kg/m3
- mass density (303.15 K, 33911 kPa): 1008.4 ± 1.2 kg/m3
- mass density (303.15 K, 33938 kPa): 1008.4 ± 1.2 kg/m3
- mass density (303.15 K, 33963 kPa): 1008.4 ± 1.2 kg/m3
- mass density (303.15 K, 33989 kPa): 1008.3 ± 1.2 kg/m3
- mass density (303.15 K, 34002 kPa): 1008.3 ± 1.2 kg/m3
- mass density (303.15 K, 34011 kPa): 1008.3 ± 1.2 kg/m3
- mass density (303.15 K, 34016 kPa): 1008.3 ± 1.2 kg/m3
- mass density (303.15 K, 34028 kPa): 1008.4 ± 1.2 kg/m3
- mass density (303.15 K, 34041 kPa): 1008.4 ± 1.2 kg/m3
- mass density (303.15 K, 34057 kPa): 1008.4 ± 1.2 kg/m3
- mass density (303.15 K, 34070 kPa): 1008.3 ± 1.2 kg/m3
- mass density (303.15 K, 34166 kPa): 1008.4 ± 1.2 kg/m3
- mass density (303.15 K, 34178 kPa): 1008.6 ± 1.2 kg/m3
- mass density (303.15 K, 34182 kPa): 1008.4 ± 1.2 kg/m3
- mass density (303.15 K, 34186 kPa): 1008.5 ± 1.2 kg/m3
- mass density (303.15 K, 34190 kPa): 1008.5 ± 1.2 kg/m3
- mass density (303.15 K, 34194 kPa): 1008.5 ± 1.2 kg/m3
- mass density (303.15 K, 34195 kPa): 1008.6 ± 1.2 kg/m3
- mass density (303.15 K, 34196 kPa): 1008.5 ± 1.2 kg/m3 and 1008.4 ± 1.2 kg/m3
- mass density (303.15 K, 34197 kPa): 1008.5 ± 1.2 kg/m3
- mass density (303.15 K, 34198 kPa): 1008.4 ± 1.2 kg/m3
- mass density (303.15 K, 34425 kPa): 1008.7 ± 1.2 kg/m3
- mass density (303.15 K, 34426 kPa): 1008.6 ± 1.2 kg/m3
- mass density (303.15 K, 34427 kPa): 1008.6 ± 1.2 kg/m3
- mass density (303.15 K, 34428 kPa): 1008.6 ± 1.2 kg/m3
- mass density (303.15 K, 34430 kPa): 1008.8 ± 1.2 kg/m3 and 1008.6 ± 1.2 kg/m3
- mass density (303.15 K, 34431 kPa): 1008.7 ± 1.2 kg/m3
- mass density (303.15 K, 34432 kPa): 1008.8 ± 1.2 kg/m3
- mass density (303.15 K, 34434 kPa): 1008.7 ± 1.2 kg/m3 and 1008.6 ± 1.2 kg/m3
- mass density (303.16 K, 193.7 kPa): 988.5 ± 1.2 kg/m3 and 988.4 ± 1.2 kg/m3
- mass density (303.16 K, 193.9 kPa): 988.4 ± 1.2 kg/m3
- mass density (303.16 K, 194.1 kPa): 988.5 ± 1.2 kg/m3 and 988.4 ± 1.2 kg/m3
- mass density (303.16 K, 194.3 kPa): 988.6 ± 1.2 kg/m3 and 988.4 ± 1.2 kg/m3
- mass density (303.16 K, 194.4 kPa): 988.6 ± 1.2 kg/m3
- mass density (303.16 K, 195.5 kPa): 988.4 ± 1.2 kg/m3
- mass density (303.16 K, 195.6 kPa): 988.5 ± 1.2 kg/m3
- mass density (303.16 K, 195.7 kPa): 988.5 ± 1.2 kg/m3
- mass density (303.16 K, 196.9 kPa): 988.5 ± 1.2 kg/m3
- mass density (303.16 K, 197.4 kPa): 988.5 ± 1.2 kg/m3 and 988.4 ± 1.2 kg/m3
- mass density (303.16 K, 197.6 kPa): 988.4 ± 1.2 kg/m3
- mass density (303.16 K, 197.7 kPa): 988.5 ± 1.2 kg/m3
- mass density (303.16 K, 198.1 kPa): 988.5 ± 1.2 kg/m3
- mass density (303.16 K, 199.6 kPa): 988.5 ± 1.2 kg/m3
- mass density (303.16 K, 200 kPa): 988.5 ± 1.2 kg/m3
- mass density (303.16 K, 200.2 kPa): 988.6 ± 1.2 kg/m3
- mass density (303.16 K, 200.3 kPa): 988.4 ± 1.2 kg/m3
- mass density (303.16 K, 200.5 kPa): 988.5 ± 1.2 kg/m3
- mass density (303.16 K, 200.7 kPa): 988.4 ± 1.2 kg/m3
- mass density (303.16 K, 201 kPa): 988.5 ± 1.2 kg/m3
- mass density (303.16 K, 201.2 kPa): 988.5 ± 1.2 kg/m3
- mass density (303.16 K, 201.4 kPa): 988.6 ± 1.2 kg/m3 and 988.3 ± 1.2 kg/m3
- mass density (303.16 K, 201.6 kPa): 988.4 ± 1.2 kg/m3
- mass density (303.16 K, 201.9 kPa): 988.5 ± 1.2 kg/m3
- mass density (303.16 K, 202.2 kPa): 988.5 ± 1.2 kg/m3
- mass density (303.16 K, 202.8 kPa): 988.5 ± 1.2 kg/m3
- mass density (303.16 K, 202.9 kPa): 988.5 ± 1.2 kg/m3
- mass density (303.16 K, 204.2 kPa): 988.5 ± 1.2 kg/m3
- mass density (303.16 K, 207.1 kPa): 988.5 ± 1.2 kg/m3
- mass density (303.16 K, 207.3 kPa): 988.5 ± 1.2 kg/m3
- mass density (303.16 K, 207.8 kPa): 988.4 ± 1.2 kg/m3
- mass density (303.16 K, 208 kPa): 988.5 ± 1.2 kg/m3
- mass density (303.16 K, 208.2 kPa): 988.5 ± 1.2 kg/m3
- mass density (303.16 K, 209 kPa): 988.5 ± 1.2 kg/m3
- mass density (303.16 K, 209.2 kPa): 988.5 ± 1.2 kg/m3
- mass density (303.16 K, 209.5 kPa): 988.6 ± 1.2 kg/m3
- mass density (303.16 K, 209.7 kPa): 988.4 ± 1.2 kg/m3
- mass density (303.16 K, 211.5 kPa): 988.5 ± 1.2 kg/m3
- mass density (303.16 K, 211.8 kPa): 988.5 ± 1.2 kg/m3
- mass density (303.16 K, 212.7 kPa): 988.4 ± 1.2 kg/m3 and 988.5 ± 1.2 kg/m3
- mass density (303.16 K, 212.9 kPa): 988.5 ± 1.2 kg/m3
- mass density (303.16 K, 219.3 kPa): 988.6 ± 1.2 kg/m3
- mass density (303.16 K, 220.1 kPa): 988.5 ± 1.2 kg/m3
- mass density (303.16 K, 220.8 kPa): 988.6 ± 1.2 kg/m3
- mass density (303.16 K, 221.2 kPa): 988.6 ± 1.2 kg/m3 and 988.4 ± 1.2 kg/m3 and 988.5 ± 1.2 kg/m3
- mass density (303.16 K, 221.4 kPa): 988.6 ± 1.2 kg/m3
- mass density (303.16 K, 221.5 kPa): 988.6 ± 1.2 kg/m3
- mass density (303.16 K, 221.9 kPa): 988.5 ± 1.2 kg/m3
- mass density (303.16 K, 222.2 kPa): 988.6 ± 1.2 kg/m3
- mass density (303.16 K, 222.4 kPa): 988.5 ± 1.2 kg/m3
- mass density (303.16 K, 222.8 kPa): 988.6 ± 1.2 kg/m3
- mass density (303.16 K, 223.1 kPa): 988.5 ± 1.2 kg/m3 and 988.4 ± 1.2 kg/m3
- mass density (303.16 K, 223.3 kPa): 988.4 ± 1.2 kg/m3
- mass density (303.16 K, 223.6 kPa): 988.5 ± 1.2 kg/m3
- mass density (303.16 K, 223.8 kPa): 988.6 ± 1.2 kg/m3
- mass density (303.16 K, 224 kPa): 988.4 ± 1.2 kg/m3
- mass density (303.16 K, 224.1 kPa): 988.6 ± 1.2 kg/m3
- mass density (303.16 K, 224.5 kPa): 988.4 ± 1.2 kg/m3
- mass density (303.16 K, 225 kPa): 988.6 ± 1.2 kg/m3
- mass density (303.16 K, 225.2 kPa): 988.4 ± 1.2 kg/m3
- mass density (303.16 K, 225.7 kPa): 988.5 ± 1.2 kg/m3
- mass density (303.16 K, 226 kPa): 988.4 ± 1.2 kg/m3
- mass density (303.16 K, 226.6 kPa): 988.4 ± 1.2 kg/m3 and 988.6 ± 1.2 kg/m3
- mass density (303.16 K, 227.1 kPa): 988.5 ± 1.2 kg/m3
- mass density (303.16 K, 227.3 kPa): 988.6 ± 1.2 kg/m3 and 988.5 ± 1.2 kg/m3
- mass density (303.16 K, 227.6 kPa): 988.5 ± 1.2 kg/m3 and 988.4 ± 1.2 kg/m3 and 988.6 ± 1.2 kg/m3
- mass density (303.16 K, 231.4 kPa): 988.4 ± 1.2 kg/m3
- mass density (303.16 K, 232 kPa): 988.5 ± 1.2 kg/m3
- mass density (303.16 K, 232.1 kPa): 988.5 ± 1.2 kg/m3
- mass density (303.16 K, 232.7 kPa): 988.5 ± 1.2 kg/m3
- mass density (303.16 K, 233.9 kPa): 988.5 ± 1.2 kg/m3
- mass density (303.16 K, 234 kPa): 988.5 ± 1.2 kg/m3 and 988.6 ± 1.2 kg/m3
- mass density (303.16 K, 234.2 kPa): 988.5 ± 1.2 kg/m3
- mass density (303.16 K, 234.6 kPa): 988.5 ± 1.2 kg/m3
- mass density (303.16 K, 234.9 kPa): 988.5 ± 1.2 kg/m3
- mass density (303.16 K, 235.4 kPa): 988.6 ± 1.2 kg/m3
- mass density (303.16 K, 235.6 kPa): 988.6 ± 1.2 kg/m3
- mass density (303.16 K, 236 kPa): 988.5 ± 1.2 kg/m3
- mass density (303.16 K, 236.1 kPa): 988.6 ± 1.2 kg/m3
- mass density (303.16 K, 236.3 kPa): 988.5 ± 1.2 kg/m3 and 988.6 ± 1.2 kg/m3
- mass density (303.16 K, 236.8 kPa): 988.6 ± 1.2 kg/m3 and 988.5 ± 1.2 kg/m3
- mass density (303.16 K, 237.2 kPa): 988.5 ± 1.2 kg/m3
- mass density (303.16 K, 237.5 kPa): 988.6 ± 1.2 kg/m3
- mass density (303.16 K, 237.7 kPa): 988.5 ± 1.2 kg/m3
- mass density (303.16 K, 238 kPa): 988.6 ± 1.2 kg/m3 and 988.5 ± 1.2 kg/m3
- mass density (303.16 K, 239.3 kPa): 988.5 ± 1.2 kg/m3
- mass density (303.16 K, 239.4 kPa): 988.5 ± 1.2 kg/m3
- mass density (303.16 K, 240 kPa): 988.5 ± 1.2 kg/m3 and 988.6 ± 1.2 kg/m3
- mass density (303.16 K, 240.3 kPa): 988.4 ± 1.2 kg/m3
- mass density (303.16 K, 240.5 kPa): 988.5 ± 1.2 kg/m3
- mass density (303.16 K, 240.8 kPa): 988.5 ± 1.2 kg/m3
- mass density (303.16 K, 241.3 kPa): 988.5 ± 1.2 kg/m3
- mass density (303.16 K, 241.5 kPa): 988.5 ± 1.2 kg/m3
- mass density (303.16 K, 241.7 kPa): 988.5 ± 1.2 kg/m3
- mass density (303.16 K, 242.2 kPa): 988.6 ± 1.2 kg/m3
- mass density (303.16 K, 242.6 kPa): 988.5 ± 1.2 kg/m3
- mass density (303.16 K, 242.7 kPa): 988.6 ± 1.2 kg/m3
- mass density (303.16 K, 242.9 kPa): 988.6 ± 1.2 kg/m3
- mass density (303.16 K, 243.3 kPa): 988.4 ± 1.2 kg/m3
- mass density (303.16 K, 243.4 kPa): 988.5 ± 1.2 kg/m3
